Laboratory results: patent US20230190796A1, “ENGINEERED CELLS EXPRESSING PROSTATE-SPECIFIC MEMBRANE ANTIGEN (PSMA) OR A MODIFIED FORM THEREOF AND RELATED METHODS” (Juno Therapeutics, Inc., priority 2017, published 2023)

Experiments:
[1] = system: T cells expressing anti-CD19 CAR/PSMA^(N9del); assay: Cytolytic assay in the presence of DCFPyL; assay type: cell-based, human; conditions: E:T 4:1; seven 3-fold serial dilutions of DCFPyL starting from 3.33×10^−6 M
Procedure: Cytolytic activity was assessed by measuring the loss of viable target cells over a period of three days, as determined by red fluorescent signal (using the IncuCyte® Live Cell Analysis System, Essen Bioscience). The number of NLR+ target cells was determined every 2 hours over time from 0 hours to 66 hours. Where indicated, a killing index was determined as 1/area under the curve (AUC) of the NLR+ target cell count over time, from 0 hours to 66 hours.
Specifically, co-cultures were incubated with DCFPyL at one of seven (7) 3-fold serial dilutions of DCFPyL starting from 3.33×10^−6 M, or were incubated without DCFPyL (0 M).

[2] = system: T cells expressing anti-CD19 CAR/PSMA^(N9del); assay: Cytokine release in co-culture in the presence of DCFPyL; assay type: cell-based, human; conditions: E:T 4:1 and 1:1; eight 3-fold serial dilutions of DCFPyL starting from 1×10^−5 M
Procedure: Specifically, accumulated amounts (pg/mL) of cytokine(s) (IL-2, IFN-gamma, TNF-alpha) were assessed following incubation of the target cells and the various populations of engineered cells, for a period of approximately 22-24 hours. Such assays provided a measure of antigen-specific cytokine secretion per CAR+ cell in the dose. In other assays, cytolytic activity against CD19-expressing target cells was assessed after incubation with the T cells.
Cytokine amounts in culture supernatants were determined using a multiplex cytokine immunoassay (Luminex®).

O=C(O)CCC(NC(=O)NC(CCCCNC(=O)c1ccc(F)nc1)C(=O)O)C(=O)O (centres unmarked) [DCFPyL, 2-(3-{1-carboxy-5-[(6-fluoro-pyridine-3-carbonyl)-amino]-pentyl}-ureido)-pentanedioicacid]
effect on cytolytic activity of T cells expressing anti-CD19 CAR/PSMA^(N9del) [1]: did not affect | effect on IFN-γ production [2]: did not substantially affect
